Series [1] relates to Hela luciferase reporter-c-Jun (HLR-c-Jun) cell lines. In words: C-Jun reporter assay. It is filed as cell-based. As to conditions: Homo sapiens, MEKK-1 transfected HLR-c-Jun cells. An excerpt:
The phosphorylation of the transcriptional factor, c-jun, by JNK in the MAP kinase signal transduction pathway can be followed via a trans-reporting system such as the commercially available PathDetect® (32).
A trans-reporting system allows one to follow, via Luciferase activity, the activation status of a fusion trans-activator protein. The trans-activator protein consists of the activation domain of the transcriptional factor of interest (c-jun) fused with a yeast transcriptional activator, GAL4 DNA binding domain (dbd). The GAL4 dbd has the advantage that no known mammalian transcriptional factors can bind to it and therefore the background noise of the assay is very low.
In the present case, Hela luciferase reporter-c-Jun (HLR-c-Jun) cell lines which constitutively express GAL4-cJun were used.
The MEKK-1 gene was inserted. MEKK-1 is a MAPKKK which triggers the activation of JNK. Expression of wild type MEKK-1 is sufficient for JNK activation (33).
Once, JNK is activated it can induce the phosphorylation of the c-jun domain of the fusion trans-activator protein (GAL4dbd-cJun) which forms a dimer. The dimer is then is able to bind to a GAL4 upstream activating sequence (GAL4 UAS) of the reporter which activates Luciferase expression.
Luciferase expression is detected by luminescence using a simple assay such as Dual-Luciferase® Reporter Assay System (34) in which Renilla is used as a “control reporter”.
Inhibition of JNK is observed as a decrease in Luciferase expression and detected by a decrease in luminescence.
HLR-c-Jun cells are cultured in DMEM High Glc supplemented with 10% FCS (Sigma), 2 mM Glutamine (Gibco), P/S, Hygromycin b 100 μg/mL and G418 250 μg/mL.
The cell suspensions are diluted with medium to give about 3.5×10^6 cells/mL and […] of cell suspension are put onto 2 10 cm culture dishes containing 9 mL of culture medium.
Transfections • Control: 0.2 μg pTK Renilla, 5.8 μg pBluescript KS, 500 μl OPTIMEM (GOBCO), 18 μl Fugene 6. • Induced: 0.1 μg pMEKK1, 0.2 μg pTK Renilla, 5.7 μg pBluescript KS, 500 μl OPTIEM (GIBCO), 18 μl Fugene 6 30′ RT.
The transfection mixture is added to the plated cells. The plates are incubated over night at 37° C. in a humidified atmosphere of 5% CO2 in air.
A 96 wells plate (100 μl of culture medium per well) is prepared. Negative control (vehicle): 2 μl of DMSO is added to the 100 μl (in triplicate). […]
The medium is removed from the plate and the cells are washed two times with 100 μl PBS. […] The luminometer reading is recorded.
−50 μl of Luciferase Assay Reagent II are injected and readings are recorded at 5 and 10 minutes.
50 μl of Stop & Glo® Reagent are injected and readings are recorded at 5 and 10 minutes.
The relative luminescence is then measured: RLU Luciferase/RLU Renilla.

Series [2] deals with IL-2 release by (PMA+Ionomycin)-stimulated Jurkat cells. In words: IL-2 release assay (IL-2 ELISA). It is filed as cell-based. As to conditions: Homo sapiens; PMA + Ionomycine stimulated Jurkat cells. As to the method:
The Ability of the Compounds According to Formula I to Modulate the Inflammatory Response by Inhibiting the Release of IL-2 was Assessed Using the Following Protocol
JNK pathway activation triggers the production of inflammatory cytokines such as IL-2. JNK can be activated by external stimuli such as PMA and Ionomycine and IL-2 production can be measured via an IL-2 ELISA test. Comparative measurements with and without the compounds of the invention according to the following protocol measure the ability of the compounds to prevent to stress-mediated IL-2 release.
Jurkat cells, a human T cell leukemia cell line (American Type Culture Collection # TIB 152) were cultured in RPMI 1640 medium (Gibco, BRL) supplemented with 10% of […] fetal calf serum (FCS), Glutamine and Penstrep. The cell suspension in the medium is diluted to give 2.10^6 cells/mL. The cells were plated (2.10^5 cells/well) on a 96-well plate containing different concentrations of a compound according to formula I (final concentration of compounds, 10, 3, 1, 0.3, 0.1 μM). This mixture is incubated 30 minutes at 37° C. in a humidified CO2 atmosphere. Cells were then treated with 10 μl PMA (Phorbolmyristate-13 Acetate-12)+Ionomycine (0.1 μM and 1 μM final concentration) in all wells except negative control. In wells without compounds, 10 μl of RPMI 2% DMSO (=0.1% final) is added. Cells are incubated 24 hours at 37° C. and then the supernatant harvested (freeze at −20° C. if not used the same day) prior to performing IL-2 ELISA test on the supernatant.
IL-2 release into the medium by (PMA+Iononomycin)-stimulated Jurkat cells, in presence or absence of test compounds may be assayed by ELISA. Following the procedure described below.
Monoclonal anti-human IL-2 antibody (MAB602) (capture), biotinylated anti-human IL-2 antibody (BAF202) (detection) and recombinant human IL-2 (202-IL-010) (standard) from From R&D Systems are used. […]
• 1. […] Optical density is measured using a microtiter plate reader set to 450 nm with correction at 570 nm.
A general note: In an ELISA, binding on a coated surface is turned into a signal by an enzyme label.

A further series has as its target GST-JNK2 (Homo sapiens, UniProt P45984). In words: JNK2 in vitro assay (33P incorporation into c-jun, SPA). It is filed as biochemical. As to the method: (§1) The phosphorylation of c-jun by JNK2 or JNK3 may be followed by monitoring the incorporation of ^33P into c-jun following the protocol below. The inhibitory activity of the compounds according to formula I, in respect of c-jun phosphorylation through JNK, is determined by calculating the phosphorylation activity of a JNK in the presence or absence of the test compounds according to formula I.
(§2) JNK3 and/or -2 assays are performed in 96 well NM plates: incubation of 0.5 μg of recombinant, pre-activated GST-JNK3 or GST-JNK2 with 1 μg of recombinant, biotinylated GST-c-Jun and 2 μM ^33γ-ATP (2 nCi/μl), in the presence or absence of compounds according to formula I and in a reaction volume of 50 μl containing 50 mM Tris-HCl, pH 8.0; 10 mM MgCl2; 1 mM Dithiothreitol, and 100 μM NaVO4. The incubation is performed for 120 min. at R.T and stopped upon addition of 200 μl of a solution containing 250 μg of Streptavidine-coated SPA beads (Amersham, Inc.)*, 5 mM EDTA, 0.1% Triton X-100 and 50 μM ATP, in phosphate saline buffer. After incubation for 60 minutes at RT, beads are sedimented by centrifugation at 1500×g for 5 minutes, resuspended in 200 μl of PBS containing 5 mM EDTA, 0.1% Triton X-100 and 50 μM ATP and the radioactivity measured in a scintillation β counter, following sedimentation of the beads as described above. By replacing biotinylated GST-c Jun with biotinylated GST-1ATF2 or biotinylated myelin basic protein, this assay may also be used to measure inhibition of pre-activated p38 and ERK MAP Kinases, respectively.

A further series addresses GST-JNK3 (Homo sapiens, UniProt P53779). In words: JNK3 in vitro assay (33P incorporation into c-jun, SPA). It is filed as biochemical. As to the method:
as §1, §2

In the next series the target is JNK1 (Homo sapiens, UniProt P45983). In words: JNK1 inhibition. Particulars: read-out: inhibition (IC50) with regard to JNK1. It is filed as biochemical.
Sequence of JNK1 (P45983 whole entry, species assumed): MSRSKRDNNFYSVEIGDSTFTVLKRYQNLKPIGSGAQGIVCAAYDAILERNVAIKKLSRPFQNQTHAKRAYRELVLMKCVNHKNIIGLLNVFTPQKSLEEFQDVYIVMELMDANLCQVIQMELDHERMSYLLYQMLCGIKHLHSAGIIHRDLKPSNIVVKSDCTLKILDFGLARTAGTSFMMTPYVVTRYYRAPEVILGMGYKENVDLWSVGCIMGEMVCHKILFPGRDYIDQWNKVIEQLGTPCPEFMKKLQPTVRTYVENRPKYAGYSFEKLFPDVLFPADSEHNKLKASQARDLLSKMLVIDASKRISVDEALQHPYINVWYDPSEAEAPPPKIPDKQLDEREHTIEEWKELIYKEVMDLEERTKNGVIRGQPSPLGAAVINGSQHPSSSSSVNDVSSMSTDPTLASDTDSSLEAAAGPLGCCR
Another series can be described thus: Solubility in water. It is filed as physicochemical. As to conditions: pH 7.4, aqueous buffer, pH of 7.4 at room temperature. As to the method:
The compounds have been assessed in respect of their solubility in water, at a pH of 7.4 at room temperature. In general the solubility of compounds of formula (I) is in a range of at least 50 μg/mL solvent, more preferably of at least 100 μg/mL solvent. For instance compounds (63), (163), (198) display a solubility in water of at least 200 μg/mL solvent.

Sequence of GST-JNK2 (P45984 whole entry): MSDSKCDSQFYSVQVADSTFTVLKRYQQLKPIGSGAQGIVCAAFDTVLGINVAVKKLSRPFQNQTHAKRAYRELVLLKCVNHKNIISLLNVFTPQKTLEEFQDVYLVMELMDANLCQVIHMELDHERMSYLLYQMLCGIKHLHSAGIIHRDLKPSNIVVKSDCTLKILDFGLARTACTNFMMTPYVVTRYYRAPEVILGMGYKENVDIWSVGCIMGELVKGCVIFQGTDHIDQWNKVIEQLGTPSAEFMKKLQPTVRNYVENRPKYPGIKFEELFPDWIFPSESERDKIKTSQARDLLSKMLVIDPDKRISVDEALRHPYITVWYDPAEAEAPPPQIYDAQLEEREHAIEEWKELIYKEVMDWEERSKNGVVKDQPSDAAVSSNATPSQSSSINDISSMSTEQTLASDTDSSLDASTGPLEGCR
Sequence of GST-JNK3 (P53779 whole entry): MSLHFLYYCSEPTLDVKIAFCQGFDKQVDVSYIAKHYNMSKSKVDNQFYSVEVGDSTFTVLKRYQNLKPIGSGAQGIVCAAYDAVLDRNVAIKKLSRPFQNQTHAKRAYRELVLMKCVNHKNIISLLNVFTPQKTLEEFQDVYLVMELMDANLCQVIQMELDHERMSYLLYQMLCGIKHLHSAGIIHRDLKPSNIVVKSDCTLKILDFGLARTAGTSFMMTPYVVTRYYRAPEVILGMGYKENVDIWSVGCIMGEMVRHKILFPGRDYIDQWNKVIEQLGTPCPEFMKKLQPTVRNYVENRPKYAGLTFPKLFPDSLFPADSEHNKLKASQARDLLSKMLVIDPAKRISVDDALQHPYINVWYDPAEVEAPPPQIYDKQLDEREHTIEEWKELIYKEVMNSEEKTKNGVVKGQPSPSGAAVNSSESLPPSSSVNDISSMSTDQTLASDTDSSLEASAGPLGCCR

One may read the IC50 as the concentration that inhibits the measured activity by half. Take `COc1cccc(C(=O)NCc2ccc(S(=O)(=O)N3CCC(NCc4c(C)c(C)c(C)c(C)c4C)CC3)s2)c1` [Example 10, 3-methoxy-N-{[5-({4-[(2,3,4,5,6-pentamethylbenzyl)amino]piperidin-1-yl}sulfonyl)thien-2-yl]methyl}benzamide]: the IC50 in series [1] is below 700 nM.
`CCCOc1ccc(CNC2CCN(S(=O)(=O)c3ccc(CNC(=O)c4cccc(OC)c4)s3)CC2)cc1` [Example 11, 3-methoxy-N-{[5-({4-[(4-propoxybenzyl)amino]piperidin-1-yl}sulfonyl)thien-2-yl]methyl}benzamide] came in with an IC50 in series [1] below 700 nM.
Consider `COc1cccc(C(=O)NCc2ccc(S(=O)(=O)N3CCC(NCc4ccc(S(=O)(=O)C(F)(F)F)cc4)CC3)s2)c1` [Example 64, 3-methoxy-N-[(5-{[4-({4-[(trifluoromethyl)sulfonyl]benzyl}-amino)piperidin-1-yl]sulfonyl}thien-2-yl)methyl]benzamide], for which, in series [2], the IC50 was below 800 nM.
Consider `O=C(NCc1ccc(S(=O)(=O)N2CCC(NCCC3CCCCC3)CC2)s1)c1ccc(Cl)cc1` [Example 70, 4-chloro-N-{[5-({4-[(2-cyclohexylethyl)amino]piperidin-1-yl}sulfonyl)thien-2-yl]methyl}benzamide], for which the IC50 against GST-JNK2 and at GST-JNK3 was below 600 nM throughout.
In the case of `CCCCCCCCCCNC1CCN(S(=O)(=O)c2ccc(CNC(=O)c3cccc(OC)c3)s2)CC1` [Example 86, 3-methoxy-N-[(5-{[4-(decylamino)piperidin-1-yl]sulfonyl}thien-2-yl)methyl]benzamide], the IC50 at JNK1 fell in the range of 100 to 700 nM.
In series [1], `O=C(NCc1ccc(S(=O)(=O)N2CCC(NCc3ccc(S(=O)(=O)C(F)(F)F)cc3)CC2)s1)c1ccc(Cl)cc1` [Example 117, 4-chloro-N-[(5-{[4-({4-[(trifluoromethyl)sulfonyl]benzyl}amino)-1-piperidinyl]sulfonyl}-2-thienyl)methyl]benzamide] returned an IC50 below 700 nM.
Consider `COc1cccc(C(=O)NCc2ccc(S(=O)(=O)N3CCCC(NCCC4CCCCC4)CC3)s2)c1` (stereo not drawn) [Example 132, N-{[5-({4-[(2-cyclohexylethyl)amino]azepan-1-yl}sulfonyl)thien-2-yl]methyl}-3-methoxy-benzamide], for which the IC50 on GST-JNK3 is below 600 nM.
`CCCCCCN(CC1CCCCC1)C1CCN(S(=O)(=O)c2ccc(CNC(=O)c3ccc(Cl)cc3)s2)CC1` [Example 155, 4-chloro-N-{[5-({4-[(cyclohexylmethyl)(hexyl)-amino]piperidin-1-yl}sulfonyl)thien-2-yl]methyl}-benzamide]: the IC50 at GST-JNK2 and at GST-JNK3 was below 600 nM throughout.
By solubility is commonly meant the concentration that dissolves in the medium under given conditions. High values mean a readily soluble substance, low ones a poorly soluble substance. `CCCCCCN(C)C1CCN(S(=O)(=O)c2ccc(CNC(=O)c3ccc(Cl)cc3)s2)CC1` [Example 163, 4-chloro-N-{[5-({4-[hexyl(methyl)amino]piperidin-1-yl}sulfonyl)thien-2-yl]methyl}benzamide]: the solubility in the series “Solubility in water” was at least 200 µg/mL.
With `COc1cccc(C(=O)NCc2ccc(S(=O)(=O)N3CCC(NCCCN4CCOCC4)C3)s2)c1` (stereo not drawn) [Example 176, 3-methoxy-N-{[5-({3-[(3-morpholin-4-ylpropyl)amino]pyrrolidin-1-yl}sulfonyl)thien-2-yl]methyl}benzamide], the IC50 against GST-JNK2 and at GST-JNK3 was below 600 nM in each case.
In the case of `CCCCCNCC1CCN(S(=O)(=O)c2ccc(CNC(=O)c3cccc(OC)c3)s2)CC1` [Example 195, 3-methoxy-N-{[5-({4-[(pentylamino)methyl]piperidin-1-yl}sulfonyl)-thien-2-yl]methyl}benzamide], the IC50 at GST-JNK2 and on GST-JNK3 was below 600 nM each time.
